# From US20240225053A9 (priority 2021, published 2024)
# “Also recorded” adds a separate entry of the source. Read-outs that look alike come from different tables or passages of the source.
# Tests used:
# Format in all cases: cell-based
# [1] = system: Clostridium perfringens ATCC10873; design: key: Good: Those in which agglomeration observed under upright microscope; Poor: Those in which no agglomeration observed under upright microscope; settings: Table 4, 500 mM
# [2] = system: Lactobacillus casei ATCC393; design: key to Agglomeration: Good: Those in which agglomeration observed under upright microscope; Poor: Those in which no agglomeration observed under upright microscope
# [3] = system: Clostridium perfringens ATCC10873; settings: for Shape: 8 hours
# [4] = system: Clostridium perfringens SM101 (CPE toxin producer); design: key to Agglomeration: Good: Agglomeration effect observed; Poor: No agglomeration effect observed; settings: 500 mM
# [5] = system: Escherichia coli MG1655; design: key: Good: Those in which agglomeration observed under upright microscope; Poor: Those in which no agglomeration observed under upright microscope
# [6] = system: Clostridium perfringens CNEOP004 (netB toxin producer); design: key to Agglomeration: Good: Agglomeration effect observed; Poor: No agglomeration effect observed; settings: 500 mM
# [7] = system: Clostridium perfringens CNEOP004; design: unit not given here; settings: bacterial cells, 500 mM, 8 hours, diluted 100 times
# [8] = system: Clostridium perfringens ATCC10873; design: key: Good: Agglomeration effect observed; Poor: No agglomeration effect observed
# [9] = system: Bifidobacterium animalis JCM1190; design: key to Agglomeration: Good: Those in which agglomeration observed under upright microscope; Poor: Those in which no agglomeration observed under upright microscope
# [10] = system: Clostridium perfringens ATCC10873; design: key to Settling: Good: Settling effect observed; Poor: No settling effect observed; settings: for Settling: 37° C., 8 hours; for Concentration required for settling / at which settling was confirmed: absence of AG, optical density about 2.0 at 660 nm
# [11] = system: Clostridium perfringens ATCC10873; design: unit not given here; settings: bacterial cells, 8 hours, diluted 100 times
# [12] = system: Clostridium perfringens SM101; design: unit not given here; settings: bacterial cells, 500 mM, 8 hours, diluted 100 times
# [13] = system: Salmonella enterica IAM1648; design: key: Good: Those in which agglomeration observed under upright microscope; Poor: Those in which no agglomeration observed under upright microscope
# [14] = system: Clostridium perfringens strain SM101; settings: KCl 500 mM
# [15] = system: mixed bacterial cells of Clostridium perfringens ATCC10873, Salmonella enterica IAM1648 and E. coli MG1655; settings: 500 mM in combination with Arabic Gum 1%; OD660 about 2.0, 37° C.
# [16] = absence of AG, Example 2 strains
# [17] = Table 2-1, 100 mM, without AG, 8 hours
structure (smiles),measurement,setting,value
[Ca+2].[Cl-].[Cl-] [CaCl2],Agglomeration,[1]; without AG,Good
same,Agglomeration,[2],Poor
same,Shape,"[3]; 20 mM, without AG",Rod-shaped
same,Shape,"[3]; 100 mM, without AG",Rod-shaped
same,Concentration at which bacterial cells agglomerated,[3]; absence of AG,≥ 20 mM
same,Agglomeration (text),[3]; [16],agglomerated in the state of bacilli
same,Shape,"[4]; without AG, 8 hours",Rod-shaped
same,Agglomeration,"[4]; Table 2-2, without AG, 8 hours",Good
same,Agglomeration,"[4]; Table 3-2, without AG",Good
same,Agglomeration,[5],Poor
same,Shape,"[6]; without AG, 8 hours",Rod-shaped
same,Agglomeration,"[6]; Table 2-3, without AG, 8 hours",Good
same,Agglomeration,"[6]; Table 3-3, without AG",Good
same,Zeta potential,[7]; without AG,−12.3
same,Agglomeration,"[8]; Table 2-1, 20 mM, without AG, 8 hours",Good
same,Agglomeration,[8]; [17],Good
same,Agglomeration,"[8]; Table 3-1, 20 mM, without AG",Good
same,Agglomeration,"[8]; Table 3-1, 100 mM, without AG",Good
same,Agglomeration,[9],Poor
same,Settling,"[10]; 20 mM, without AG",Poor
same,Settling,"[10]; 100 mM, without AG",Poor
same,Zeta potential,"[11]; 20 mM, without AG",−4.4
same,Zeta potential,"[11]; 100 mM, without AG",−4.0
same,Zeta potential,[12]; without AG,−14.3
same,Agglomeration,[13],Poor
[Cl][Fe][Cl] [FeCl2],Agglomeration,[1]; without AG,Good
same,Agglomeration,[2],Good
same,Agglomeration effect,[2],showed an agglomeration effect
same,Shape,"[3]; 10 mM, without AG",Rod-shaped
same,Shape,"[3]; 50 mM, without AG",Rod-shaped
same,Concentration at which bacterial cells agglomerated,[3]; absence of AG,≥ 10 mM
same,Agglomeration (text),[3]; [16],showed an agglomeration effect; also recorded: agglomerated in the state of bacilli
same,Shape,"[4]; without AG, 8 hours",Rod-shaped
same,Agglomeration,"[4]; Table 2-2, without AG, 8 hours",Good
same,Agglomeration,"[4]; Table 3-2, without AG",Good
same,Agglomeration,[5],Poor
same,Shape,"[6]; without AG, 8 hours",Rod-shaped
same,Agglomeration,"[6]; Table 2-3, without AG, 8 hours",Good
same,Agglomeration,"[6]; Table 3-3, without AG",Good
same,Zeta potential,[7]; without AG,21.5
same,Agglomeration,"[8]; Table 2-1, 10 mM, without AG, 8 hours",Good
same,Agglomeration,"[8]; Table 2-1, 50 mM, without AG, 8 hours",Good
same,Agglomeration,"[8]; Table 3-1, 10 mM, without AG",Good
same,Agglomeration,"[8]; Table 3-1, 50 mM, without AG",Good
same,Agglomeration,[9],Good
same,Agglomeration effect,[9],showed an agglomeration effect
same,Settling,"[10]; 10 mM, without AG",Good
same,Settling,"[10]; 50 mM, without AG",Good
same,Concentration required for settling / at which settling was confirmed,[10],≥ 10 mM
same,Zeta potential,"[11]; 10 mM, without AG",0.8
same,Zeta potential,"[11]; 50 mM, without AG",20.7
same,Zeta potential,[12]; without AG,4.1
same,Agglomeration,[13],Poor
[Cl-].[K+] [KCl],Agglomeration,[1]; W/AG 1%,Good
same,Agglomeration,[1]; without AG,Poor
same,Agglomeration,[2],Poor
same,Agglomeration effect,[2],not exerted
same,Shape,"[3]; 100 mM, without AG",Spheroidal
same,Shape,"[3]; 500 mM, w/AG 1%",Spheroidal
same,Shape,"[3]; 500 mM, without AG",Spheroidal
same,Agglomeration (text),[3]; [16],did not agglomerate
same,Shape of the bacterial cells,[3]; [16],changed from bacilli to cocci
same,Agglomeration (text),"[3]; coexistence with AG, Example 2 strains",agglomerated in the state of cocci
same,Shape,"[4]; w/AG 1%, 8 hours",Spheroidal
same,Shape,"[4]; without AG, 8 hours",Spheroidal
same,Agglomeration,"[4]; Table 2-2, w/AG 1%, 8 hours",Good
same,Agglomeration,"[4]; Table 2-2, without AG, 8 hours",Poor
same,Agglomeration,"[4]; Table 3-2, w/AG 1%",Good
same,Agglomeration,"[4]; Table 3-2, without AG",Poor
same,Agglomeration,[5],Poor and Good
same,Shape,"[6]; w/AG 1%, 8 hours",Spheroidal
same,Shape,"[6]; without AG, 8 hours",Spheroidal
same,Agglomeration,"[6]; Table 2-3, w/AG 1%, 8 hours",Good
same,Agglomeration,"[6]; Table 2-3, without AG, 8 hours",Poor
same,Agglomeration,"[6]; Table 3-3, w/AG 1%",Good
same,Agglomeration,"[6]; Table 3-3, without AG",Poor
same,Zeta potential,[7]; w/AG 1%,−23
same,Zeta potential,[7]; without AG,−25
same,Agglomeration,[8]; [17],Poor
same,Agglomeration,"[8]; Table 2-1, 500 mM, w/AG 1%, 8 hours",Good
same,Agglomeration,"[8]; Table 2-1, 500 mM, without AG, 8 hours",Poor
same,Agglomeration,"[8]; Table 3-1, 500 mM, W/AG 1%",Good
same,Agglomeration,"[8]; Table 3-1, 500 mM, without AG",Poor
same,Agglomeration,[9],Poor
same,Agglomeration effect,[9],not exerted
same,Nature of cocci (vegetative cells or spores) under phase-contrast microscope,[14],not spores
same,Settling,"[10]; 100 mM, without AG",Good
same,Settling,"[10]; 500 mM, w/AG 1%",Good
same,Settling,"[10]; 500 mM, without AG",Good
same,Concentration required for settling / at which settling was confirmed,[10],≥ 100 mM
same,Agglomeration of the three types of enteric bad bacteria,[15],can quickly agglomerate
same,Zeta potential,"[11]; 500 mM, W/AG 1%",−10.2
same,Zeta potential,"[11]; 500 mM, without AG",−29.0
same,Zeta potential,[12]; w/AG 1%,−26.5
same,Zeta potential,[12]; without AG,−30.2
same,Agglomeration,[13],Poor and Good
